For this assay, the system named is facial Rosacea. The assay can be described thus: clinical type observations of topical application in facial Rosacea. The format is in vivo.

In the case of `S=[Se]=S` [selenium sulfide], under “clinical type observations”, the “redness, small dilated blood vessels and small red bumps characterizing the facial Rosacea” value is listed as “observed to be decreased”. The “effectiveness in facial Rosacea” value (fluid form selenium sulfide of 1% strength) is given as “Effective in most instances”. Also, the “redness, flushing and inflammation associated with facial Rosacea and skin erythema” value (topical application, clinical type observations) is recorded as “effective in significantly reducing”.

The values are drawn from patent US20170112873A1, “Method and Topical Composition for the Treatment of Rosacea and Skin Erythema Using Selenium Sulfide” (priority 2015, published 2017).
